Test results reported in patent US20050027106A1, “Cancerous disease modifying antibodies” (priority 2003, published 2005).

Columns and labels:
[1] = Live/Dead cytotoxicity assay, hybridoma supernatant; settings: human
Description: (§1) In conjunction with testing for antibody binding, the cytotoxic effects of the hybridoma supernatants were tested in the same colon cancer and normal cell lines: HT-29, SW1116 (and Lovo for AR26A439.3) and CCD-27sk. The Live/Dead cytotoxicity assay was obtained from Molecular Probes ([…].). The assays were performed according to the manufacturer's instructions with the changes outlined below. Cells were plated before the assay at the predetermined appropriate density. After 2 days, 100 μl of supernatant from the hybridoma microtitre plates were transferred to the cell plates and incubated in a 5 percent CO2 incubator for 5 days. […] An anti-EGFR antibody (C225) was also used in the assay for comparison. After 5 days of treatment, the plate was then emptied by inverting and blotting dry. Room temperature DPBS (Dulbecco's phosphate buffered saline) containing MgCl2 and CaCl2 was dispensed into each well from a multichannel squeeze bottle, tapped 3 times, emptied by inversion and then blotted dry. 50 μl of the fluorescent Live/Dead dye diluted in DPBS containing MgCl2 and CaCl2 was added to each well and incubated at 37° C. in a 5% CO2 incubator for 30 minutes. The plates were read in a Perkin-Elmer HTS7000 fluorescence plate reader and the data was analyzed in Microsoft Excel.

[2] = tested on: HT-29 colon cancer cell line; assay: as above; settings: 5 days
Description: as §1

[3] = tested on: CCD-27sk normal cell line; assay: as above; settings: 5 days
Description: as §1

Row | Compound | cytotoxicity at 5 days [1] | cytotoxicity at 5 days ([1]; Cytotoxicity (%) HT-29 Average) | Cytotoxicity (%) HT-29 Average [2] | cytotoxicity at 5 days ([1]; Cytotoxicity (%) CCD-27sk Average) | Cytotoxicity (%) CCD-27sk Average [3]
1 | [N-]=[N+]=[N-] [NaN3, sodium azide] | 4% | 59% | 57% | – | –
2 | C[C@@H]1C[C@@H]([C@H](O)CC2CC(=O)NC(=O)C2)C(=O)[C@@H](C)C1 [Cycloheximide] | 56% | 46% | 48% | 21% | 40%
